What is called EC50 is the concentration giving half of the maximal effect.

This experiment deals with T1, glucocorticoid receptor (GR) (Homo sapiens, UniProt P04150).
T1 sequence (P04150 521-777): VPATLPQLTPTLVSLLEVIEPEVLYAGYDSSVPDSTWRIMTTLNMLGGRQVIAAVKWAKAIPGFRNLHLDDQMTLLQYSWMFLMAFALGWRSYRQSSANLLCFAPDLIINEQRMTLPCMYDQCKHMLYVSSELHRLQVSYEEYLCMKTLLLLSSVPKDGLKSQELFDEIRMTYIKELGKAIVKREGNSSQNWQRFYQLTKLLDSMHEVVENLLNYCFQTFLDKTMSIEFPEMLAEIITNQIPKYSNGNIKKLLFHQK
As to the kind of experiment: Assay for agonist activity on glucocorticoid receptor (luciferase reporter, HEK293 cells transfected with pBIND-GR plasmid). In kind it is cell-based. To be noted: HEK293 cells transfected with pBIND-GR, luciferase signal; read-out: GR agonist EC50. How it is done:
Pharmacological Example 1: Assay for Agonist Activity on Glucocorticoid Receptor (GR)
The test compounds were subjected to a 4-fold serial dilution starting from an initial concentration of 10 µ M, generating a 10-point concentration gradient with duplicate wells for each concentration. The blank control consisted of 0.1 % DMSO.
The HEK293 stable cell line […] transfected with glucocorticoid receptor (GR) (ICE Bioscience, Lot No. TYP-20220519) was cultured in Dulbecco's Modified Eagle Medium (DMEM) supplemented with 10% fetal bovine serum (FBS) and 200 µ g/ml Hygromycin B in a cell incubator containing 5% CO2 at 37 °C. The spent medium was aspirated and the cells were washed once with phosphate-buffered saline (PBS). Then, 1 mL of TrypLE™ Express solution was added, and the cells were incubated at 37 °C for approximately 2 min. When the cells detached from the bottom of the cell culture dish, approximately 5 mL of pre-warmed complete medium at 37 °C was added. The cell suspension was gently pipetted with a pipette to dissociate clumped cells. The cell suspension was transferred to a sterile centrifuge tube and centrifuged at 1000 rpm for 5 min to pellet the cells for experiments or subculture.
HEK293 cells were digested and seeded into 6-cm culture dishes. The pBIND-GR plasmid was transfected into the HEK293 cells using a transfection reagent, resulting in HEK293 cells successfully transfected with the pBIND-GR plasmid. The cells were resuspended in phenol red-free DMEM medium containing 5% charcoal-stripped serum, counted, and then seeded into 96-well plates. The test compounds were added, and the plates were then incubated in an incubator. The luminescence signal values were measured using a multimode microplate reader following the instructions of the luciferase assay kit. The EC50 values of each test compound were calculated using the nonlinear fitting formula with GraphPad Prism 8.0 software.
In general terms: A reporter such as luciferase makes a cellular process visible.
In the case of `C[C@]12C=CC(=O)C=C1CC[C@H]1[C@@H]3C[C@H]4OC(c5ccc(CNC6COC(=O)C6)cc5)O[C@@]4(C(=O)CO)[C@@]3(C)C[C@H](O)[C@@]12Cl` (stereo partly drawn) [Compound 27, (6aS,6bR,7S,8aS,8bS,11aR,12aS,12bS)-6b-Chloro-7-hydroxy-8b-(2-hydroxyacetyl)-6a,8a-dimethyl-10-(4-(((5-oxotetrahydrofuran-3-yl)amino)methyl)phenyl)-1,2,6a,6b,7,8,8a,8b,11a,12,12a,12b-dodecahydro-4H-naphtho[2',1':4,5]indeno[1,2-d][1,3]dioxol-4-one], the EC50 came to 1.82 nM.

For `C[C@]12C=CC(=O)C=C1CC[C@H]1[C@@H]3C[C@H]4OC(c5ccc(COC6COC(=O)C6)cc5)O[C@@]4(C(=O)CO)[C@@]3(C)C[C@H](O)[C@@]12Cl` (stereo partly drawn) [Compound 25, (6aS,6bR,7S,8aS,8bS,11aR,12aS,12bS)-6b-Chloro-7-hydroxy-8b-(2-hydroxyacetyl)-6a,8a-dimethyl-10-(4-(((5-oxotetrahydrofuran-3-yl)oxy)methyl)phenyl)-1,2,6a,6b,7,8,8a,8b,11a,12,12a,12b-do decahydro-4H-naphtho[2',1':4,5]indeno[1,2-d][1,3]dioxol-4-one], the EC50 was 1.3 nM.

With `C[C@]12C=CC(=O)C=C1[C@@H](F)C[C@H]1[C@@H]3C[C@H]4OC(c5ccc(COC6COC(=O)C6)cc5)O[C@@]4(C(=O)CO)[C@@]3(C)C[C@H](O)[C@@]12F` (stereo partly drawn) [Compound 10, (2S,6aS,6bR,7S,8aS,8bS,11aR,12aS,12bS)-2,6b-Difluoro-7-hydroxy-8b-(2-hydroxyacetyl)-6a,8a-dimethyl-10-(4-(((5-oxotetrahydrofuran-3-yl)oxy)methyl)phenyl)-1,2,6a,6b,7,8,8a,8b,11a,12,12a,1 2b-dodecahydro-4H-naphtho[2',1':4,5]indeno[1,2-d][1,3]dioxol-4-one], the EC50 turned out to be 2.65 nM.

As to `C[C@]12C=CC(=O)C=C1CC[C@@H]1[C@@H]2[C@@H](O)C[C@@]2(C)[C@H]1C[C@H]1OC(c3ccc(CNC4COC(=O)C4)cc3)O[C@]12C(=O)CO` (stereo partly drawn) [Compound 33, (6aR,6bS, 7S,8aS,8bS,11aR,12aS,12bS)-7-Hydroxy-8b-(2-hydroxyacetyl)-6a,8a-dimethyl-10-(4-(( (5-oxotetrahydrofuran-3-yl)amino)methyl)phenyl)-1,2,6a,6b,7,8,8a,8b,11a,12,12a,12b-dodecahydr o-4H-naphtho[2',1':4,5]indeno[1,2-d][1,3]dioxol-4-one], the EC50 was found to be 4.38 nM.

Regarding `C[C@]12C=CC(=O)C=C1[C@@H](F)C[C@H]1[C@@H]3C[C@H]4OC(c5ccc(CS(=O)(=O)C6CCOC6=O)cc5)O[C@@]4(C(=O)CO)[C@@]3(C)C[C@H](O)[C@@]12F` (stereo partly drawn) [Compound 58, (2S,6aS,6bR,7S,8aS,8bS,11aR,12aS,12bS)-2,6b-Difluoro-7-hydroxy-8b-(2-hydroxyacetyl)-6a,8a-dimethyl-10-(4-(((2-oxotetrahydrofuran-3-yl)sulfonyl)methyl)phenyl)-1,2,6a,6b,7,8,8a,8b,11a,12, 12a,12b-dodecahydro-4H-naphtho[2',1':4,5]indeno[1,2-d][1,3]dioxol-4-one], the EC50 came out at 3.67 nM.

Take `C[C@]12C=CC(=O)C=C1[C@@H](F)C[C@H]1[C@@H]3C[C@H]4OC(c5cnc(CSC6CCOC6=O)nc5)O[C@@]4(C(=O)CO)[C@@]3(C)C[C@H](O)[C@@]12F` (stereo partly drawn) [Compound 52, (2S,6aS,6bR,7S,8aS,8bS,11aR,12aS,12bS)-2,6b-Difluoro-7-hydroxy-8b-(2-hydroxyacetyl)-6a,8a-dimethyl-10-(2-(((2-oxotetrahydrofuran-3-yl)thio)methyl)pyrimidin-5-yl)-1,2,6a,6b,7,8,8a,8b,11a, 12,12a,12b-dodecahydro-4H-naphtho[2',1':4,5]indeno[1,2-d][1,3]dioxol-4-one]: the EC50 was determined as 6.92 nM.

In the case of `C[C@]12C=CC(=O)C=C1CC[C@H]1[C@@H]3C[C@H]4OC(c5ccc(COC6COC(=O)C6)cc5)O[C@@]4(C(=O)CO)[C@@]3(C)C[C@H](O)[C@@]12F` (stereo partly drawn) [Compound 19, (6aS,6bR,7S,8aS,8bS,11aR,12aS,12bS)-6b-Fluoro-7-hydroxy-8b-(2-hydroxyacetyl)-6a,8a-dimethyl-10-(4-(((5-oxotetrahydrofuran-3-yl)oxy)methyl)phenyl)-1,2,6a,6b,7,8,8a,8b,11a,12,12a,12b-do decahydro-4H-naphtho[2',1':4,5]indeno[1,2-d][1,3]dioxol-4-one], the EC50 turned out to be 0.91 nM.

With `C[C@]12C=CC(=O)C=C1CC[C@H]1[C@@H]3C[C@H]4OC(c5ccc(CC6CCOC6=O)cc5)O[C@@]4(C(=O)CO)[C@@]3(C)C[C@H](O)[C@@]12F` (stereo partly drawn) [Compound 43, (6aS,6bR,7S,8aS,8bS,11aR,12aS,12bS)-6b-Fluoro-7-hydroxy-8b-(2-hydroxyacetyl)-6a,8a-dimethyl-10-(4-((2-oxotetrahydrofuran-3-yl)methyl)phenyl)-1,2,6a,6b,7,8,8a,8b,11a,12,12a,12b-dodecah ydro-4H-naphtho[2',1':4,5]indeno[1,2-d][1,3]dioxol-4-one], the EC50 was found to be 7.71 nM.

For the compound `C[C@]12C=CC(=O)C=C1[C@@H](F)C[C@H]1[C@@H]3C[C@H]4OC(c5ccc(CSC6CCOC6=O)cn5)O[C@@]4(C(=O)CO)[C@@]3(C)C[C@H](O)[C@@]12F` (stereo partly drawn) [Compound 49, (2S,6aS,6bR,7S,8aS,8bS,11aR,12aS,12bS)-2,6b-Difluoro-7-hydroxy-8b-(2-hydroxyacetyl)-6a,8a-dimethyl-10-(5-(((2-oxotetrahydrofuran-3-yl)thio)methyl)pyridin-2-yl)-1,2,6a,6b,7,8,8a,8b,11a,12, 12a,12b-dodecahydro-4H-naphtho[2',1':4,5]indeno[1,2-d][1,3]dioxol-4-one], the EC50 was found to be 1.12 nM.

For the compound `C[C@]12C=CC(=O)C=C1CC[C@H]1[C@@H]3C[C@H]4OC(c5ccc(NC6CCOC6=O)cc5)O[C@@]4(C(=O)CO)[C@@]3(C)C[C@H](O)[C@@]12F` (stereo partly drawn) [Compound 42, (6aS,6bR,7S,8aS,8bS,11aR,12aS,12bS)-6b-Fluoro-7-hydroxy-8b-(2-hydroxyacetyl)-6a,8a-dimethyl-10-(4-((2-oxotetrahydrofuran-3-yl)amino)phenyl)-1,2,6a,6b,7,8,8a,8b,11a,12,12a,12b-dodecahy dro-4H-naphtho[2',1':4,5]indeno[1,2-d][1,3]dioxol-4-one], the EC50 was determined as 19.5 nM.

In the case of `C[C@]12C=CC(=O)C=C1CC[C@H]1[C@@H]3C[C@H]4OC(c5ccc(C[S+]([O-])C6CCOC6=O)cc5)O[C@@]4(C(=O)CO)[C@@]3(C)C[C@H](O)[C@@]12F` (stereo partly drawn) [Compound 56, (6aS,6bR,7S,8aS,8bS,11aR,12aS,12bS)-6b-Fluoro-7-hydroxy-8b-(2-hydroxyacetyl)-6a,8a-dimethyl-10-(4-(((2-oxotetrahydrofuran-3-yl)sulfinyl)methyl)phenyl)-1,2,6a,6b,7,8,8a,8b,11a,12,12a,12b-dodecahydro-4H-naphtho[2',1':4,5]indeno[1,2-d][1,3]dioxol-4-one], the EC50 stood at 1.56 nM.

For `C[C@]12C=CC(=O)C=C1CC[C@H]1[C@@H]3C[C@H]4OC(c5ccc(CSC6CCOC6=O)cn5)O[C@@]4(C(=O)CO)[C@@]3(C)C[C@H](O)[C@@]12F` (stereo partly drawn) [Compound 50, (6aS,6bR,7S,8aS,8bS,11aR,12aS,12bS)-6b-Fluoro-7-hydroxy-8b-(2-hydroxyacetyl)-6a,8a-dimethyl-10-(5-(((2-oxotetrahydrofuran-3-yl)thio)methyl)pyridin-2-yl)-1,2,6a,6b,7,8,8a,8b,11a,12,12a,12 b-dodecahydro-4H-naphtho[2',1':4,5]indeno[1,2-d][1,3]dioxol-4-one], the EC50 worked out at 0.98 nM.

Regarding `C[C@]12C=CC(=O)C=C1CC[C@H]1[C@@H]3C[C@H]4OC(c5ccc(CS(=O)(=O)C6CCOC6=O)cc5)O[C@@]4(C(=O)CO)[C@@]3(C)C[C@H](O)[C@@]12Cl` (stereo partly drawn) [Compound 60, (6aS,6bR,7S,8aS,8bS,11aR,12aS,12bS)-6b-Chloro-7-hydroxy-8b-(2-hydroxyacetyl)-6a,8a-dimethyl-10-(4-(((2-oxotetrahydrofuran-3-yl)sulfonyl)methyl)phenyl)-1,2,6a,6b,7,8,8a,8b,11a,12,12a,12b-dodecahydro-4H-naphtho[2',1':4,5]indeno[1,2-d][1,3]dioxol-4-one], the EC50 amounted to 3.5 nM.

`C[C@]12C=CC(=O)C=C1CC[C@@H]1[C@@H]2[C@@H](O)C[C@@]2(C)[C@H]1C[C@H]1OC(c3ccc(CSC4CCOC4=O)cc3)O[C@]12C(=O)CO` (stereo partly drawn) [Compound 29, (6aR,6bS, 7S,8aS,8bS,11aR,12aS,12bS)-7-Hydroxy-8b-(2-hydroxyacetyl)-6a,8a-dimethyl-10-(4-(( (2-oxotetrahydrofuran-3-yl)thio)methyl)phenyl)-1,2,6a,6b,7,8,8a,8b,11a,12,12a,12b-dodecahydro-4H-naphtho[2',1':4,5]indeno[1,2-d][1,3]dioxol-4-one]: the EC50 stood at 3.66 nM.
